In PMC6306373, “The development of a GPR44 targeting radioligand [^11C]AZ12204657 for in vivo assessment of beta cell mass” (EJNMMI Research, 2018):
pIC50: −log10 of the molar value.

Biological target: T1, GPR44 (prostaglandin D2 receptor 2, DP2, CRTh2) (Homo sapiens, UniProt Q9Y5Y4)
T1 construct: gene PTGDR2; human recombinant GPR44 co-expressed with Gα16 in HEK293 cell membranes
T1 sequence (Q9Y5Y4 1-395): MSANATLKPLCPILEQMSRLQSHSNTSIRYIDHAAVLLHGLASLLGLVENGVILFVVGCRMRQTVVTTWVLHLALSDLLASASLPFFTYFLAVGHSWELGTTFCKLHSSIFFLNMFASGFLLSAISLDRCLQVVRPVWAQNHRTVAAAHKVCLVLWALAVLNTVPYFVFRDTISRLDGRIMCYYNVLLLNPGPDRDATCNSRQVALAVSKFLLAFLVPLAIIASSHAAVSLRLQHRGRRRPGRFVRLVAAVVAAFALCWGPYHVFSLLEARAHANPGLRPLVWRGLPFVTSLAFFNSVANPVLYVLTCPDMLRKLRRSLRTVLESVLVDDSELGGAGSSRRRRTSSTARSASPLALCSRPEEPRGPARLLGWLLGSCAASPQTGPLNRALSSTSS
Assay: [3H]PGD2 displacement SPA on HEK293 membranes; also displacement of [[…]-3H-phenoxy]-AZ12204657 by filtration (IC50 […])
Format: binding

C[C@H](Oc1ccc(Cl)cc1Oc1ccc(S(C)(=O)=O)cc1Cl)C(=O)O [AZ12204657, (S)-2-(4-chloro-2-[2-chloro-4-(methylsulfonyl)phenoxy]phenoxy) propanoic acid]
pIC50: 8.60
